In patent US9199943B2, “2-(poly-substituted aryl)-6-amino-5-halo-4-pyrimidinecarboxylic acids and their use as herbicides” (Dow AgroSciences, LLC., priority 2006, dated 2015) one finds pest or weed control data, which are given here for nine compounds.

What all share (format): in vivo
Assay [1] deals with HELAN = sunflower (Helainthus annuus). The assay is described as follows: General postemergence herbicidal activity, sunflower. The settings on record: post-emergence, 336 h; post-emergent, 140 g ai/ha, visual score after 14 days (0 no injury, 100 complete kill). On the procedure:
(§1) Seeds or nutlets of the desired test plant species were planted in Sun Gro MetroMix® 306 planting mixture, which typically has a pH of 6.0 to 6.8 and an organic matter content of about 30 percent, in plastic pots with a surface area of 64 square centimeters. When required to ensure good germination and healthy plants, a fungicide treatment and/or other chemical or physical treatment was applied. The plants were grown for 7-21 days in a greenhouse with an approximate 15 hour photoperiod which was maintained at about 23-29° C. during the day and 22-28° C. during the night. Nutrients and water were added on a regular basis and supplemental lighting was provided with overhead metal halide 1000-Watt lamps as necessary. The plants were employed for testing when they reached the first or second true leaf stage.
(§2) A weighed amount, determined by the highest rate to be tested, of each test compound was placed in a 25 mL glass vial and was dissolved in 4 mL of a 97:3 v/v (volume/volume) mixture of acetone and dimethyl sulfoxide (DMSO) to obtain concentrated stock solutions. […] The concentrated stock solutions obtained were diluted with 20 mL of an aqueous mixture containing acetone, water, isopropyl alcohol, DMSO, Atplus 411F crop oil concentrate, and Triton X-155 surfactant in a 48.5:39:10:1.5:1.0:0.02 v/v ratio to obtain spray solutions containing the highest application rates. Additional application rates were obtained by serial dilution of 12 mL of the high rate solution into a solution containing 2 mL of 97:3 v/v (volume/volume) mixture of acetone and dimethyl sulfoxide (DMSO) and 10 mL of an aqueous mixture containing acetone, water, isopropyl alcohol, DMSO, Atplus 411F crop oil concentrate, and Triton X-155 surfactant in a 48.5:39:10:1.5:1.0:0.02 v/v ratio to obtain ½×, ¼×, ⅛× and 1/16× rates of the high rate. Compound requirements are based upon a 12 mL application volume at a rate of 187 L/ha. Formulated compounds were applied to the plant material with an overhead Mandel track sprayer equipped with a 8002E nozzles calibrated to deliver 187 L/ha over an application area of 0.503 square meters at a spray height of 18 inches (43 cm) above the average plant canopy height. Control plants were sprayed in the same manner with the solvent blank.
(§3) The treated plants and control plants were placed in a greenhouse as described above and watered by sub-irrigation to prevent wash-off of the test compounds. After 14 days, the condition of the test plants as compared with that of the untreated plants was determined visually and scored on a scale of 0 to 100 percent where 0 corresponds to no injury and 100 corresponds to complete kill.
(§4) By applying the well-accepted probit analysis as described by J. Berkson in Journal of the […], 48, 565 (1953) and by D. Finney in “Probit Analysis” Cambridge University Press (1952), the above data can be used to calculate GR50 and GR80 values, which are defined as growth reduction factors that correspond to the effective dose of herbicide required to kill or control 50 percent or 80 percent, respectively, of a target plant.

Assay [2] deals with HORVS = barley (Hordeum vulare). Briefly: Postemergence herbicidal activity in cereal crops, barley. The settings on record: post-emergence, 480 h, post-emergent, barley (crop), after 20-22 days; for pest or weed control at 70 g/ha: 70 g ai/ha; for pest or weed control at 35 g/ha: 35 g ai/ha; for pest or weed control at 17.5 g/ha: 17.5 g ai/ha. The protocol: (§5) Seeds of the desired test plant species were planted in Sun Gro MetroMix® 306 planting mixture, which typically has a pH of 6.0 to 6.8 and an organic matter content of about 30 percent, in plastic pots with a surface area of 103.2 square centimeters. When required to ensure good germination and healthy plants, a fungicide treatment and/or other chemical or physical treatment was applied. The plants were grown for 7-36 days in a greenhouse with an approximate 14 hour photoperiod which was maintained at about 18° C. during the day and 17° C. during the night. Nutrients and water were added on a regular basis and supplemental lighting was provided with overhead metal halide 1000-Watt lamps as necessary. The plants were employed for testing when they reached the second or third true leaf stage.
(§6) A weighed amount, determined by the highest rate to be tested, of each test compound was placed in a 25 mL glass vial and was dissolved in 8 mL of a 97:3 v/v mixture of acetone and DMSO to obtain concentrated stock solutions. […] The concentrated stock solutions obtained were diluted with 16 mL of an aqueous mixture containing acetone, water, isopropyl alcohol, DMSO, Agri-dex crop oil concentrate, and Triton X-77 surfactant in a 64.7:26.0:6.7:2.0:0.7:0.01 v/v ratio to obtain spray solutions containing the highest application rates. Additional application rates were obtained by serial dilution of 12 mL of the high rate solution into a solution containing 4 mL of 97:3 v/v mixture of acetone and DMSO and 8 mL of an aqueous mixture containing acetone, water, isopropyl alcohol, DMSO, Agri-dex crop oil concentrate, and Triton X-77 surfactant in a 48.5:39.0:10.0:1.5:1.0:0.02 v/v ratio to obtain ½×, ¼×, ⅛× and 1/16× rates of the high rate. Compound requirements are based upon a 12 mL application volume at a rate of 187 L/ha. Formulated compounds were applied to the plant material with an overhead Mandel track sprayer equipped with a 8002E nozzles calibrated to deliver 187 L/ha over an application area of 0.503 square meters at a spray height of 18 inches (43 cm) above average plant canopy height. Control plants were sprayed in the same manner with the blank.
(§7) The treated plants and control plants were placed in a greenhouse as described above and watered by sub-irrigation to prevent wash-off of the test compounds. After 20-22 days, the condition of the test plants as compared with that of the untreated plants was determined visually and scored on a scale of 0 to 100 percent where 0 corresponds to no injury and 100 corresponds to complete kill.

The subject of assay [3] is CHEAL = lambsquarter (Chenopodium album). Briefly: General postemergence herbicidal activity, lambsquarter. The following applies: Chenopodium album, post-emergence, 336 h; post-emergent, 140 g ai/ha, visual score after 14 days (0 no injury, 100 complete kill). The protocol: as §1, §2, §3, §4
Assay [4] relates to LAMPU = Lamium purpureum. Briefly: Postemergence herbicidal activity in cereal crops, Lamium purpureum. The following applies: post-emergence, 480 h, post-emergent, after 20-22 days; for pest or weed control at 70 g/ha: 70 g ai/ha; for pest or weed control at 35 g/ha: 35 g ai/ha; for pest or weed control at 17.5 g/ha: 17.5 g ai/ha. The protocol: as §5, §6, §7
Assay [5] deals with PAPRH = Papaver rhoeas. The assay is described as follows: Postemergence herbicidal activity in cereal crops, Papaver rhoeas. The following applies: post-emergence, 480 h, post-emergent, after 20-22 days; for pest or weed control at 70 g/ha: 70 g ai/ha; for pest or weed control at 35 g/ha: 35 g ai/ha; for pest or weed control at 17.5 g/ha: 17.5 g ai/ha. On the procedure: as §5, §6, §7

Molecules are shown by their SMILES.

As usually defined, the pest or weed control is the degree to which the test organism was suppressed or injured, in per cent. The low end stands for a weak effect, the high end for a strong effect. With `COC(=O)c1nc(-c2ccc(Cl)c(OC)c2Cl)nc(N)c1Cl` [Compound 6, 6-Amino-5-chloro-2-(2,4-dichloro-3-methoxyphenyl)pyrimidine-4-carboxylic acid methyl ester], the pest or weed control at 140 g/ha in assay [1] and in assay [3] was 100% in each case. Also, the pest or weed control at 70 g/ha in assay [2] is 0%; in assay [4], 99%; in assay [5], 99%.

For the compound `COC(=O)c1nc(-c2ccc(Cl)c(OCC(F)F)c2F)nc(N)c1Cl` [Compound 10, 6-Amino-5-chloro-2-[4-chloro-3-(2,2-difluoroethoxy)-2-fluorophenyl]-pyrimidine-4-carboxylic acid methyl ester], the pest or weed control at 140 g/ha in assay [1] stood at 80%; in assay [3], 85%. In addition, the pest or weed control at 70 g/ha in assay [2] came out at 0%; in assay [4], 85%; in assay [5], 95%.

With `COC(=O)c1nc(-c2ccc(Cl)c(N(C)C)c2F)nc(N)c1Cl` [Compound 8, 6-Amino-5-chloro-2-(4-chloro-3-dimethylamino-2-fluorophenyl)pyrimidine-4-carboxylic acid methyl ester], the pest or weed control at 140 g/ha in assay [1] and in assay [3] was 100% in each case. For the same compound, the results for the pest or weed control at 35 g/ha in assay [2], in assay [4] and in assay [5] were 0%, 85% and 100%, respectively.

Turning to `COC(=O)c1nc(-c2c(F)cc(Cl)c(OC)c2F)nc(N)c1Cl` [Compound 2, 6-amino-5-chloro-2-(4-chloro-2,6-difluoro-3-methoxy-phenyl)pyrimidine-4-carboxylic acid methyl ester], the pest or weed control at 140 g/ha in assay [1] and in assay [3] was 100% in each case. Further, the figures for the pest or weed control at 35 g/ha in assay [2], in assay [4] and in assay [5] were 0%, 95% and 100%, respectively.

As for `COC(=O)c1nc(-c2ccc3c(c2F)OCO3)nc(N)c1Cl` [Compound 9, 6-Amino-5-chloro-2-(4-fluorobenzo[1,3]dioxol-5-yl)pyrimidine-4-carboxylic acid methyl ester], the pest or weed control at 140 g/ha turned out to be 100% in assay [1] and 90% in assay [3]. For the same compound, the pest or weed control at 70 g/ha is 0% in assay [2], 100% in assay [4] and 40% in assay [5].

With `COC(=O)c1nc(-c2ccc(Cl)c(OC)c2F)nc(N)c1Cl` [Compound 3, 6-amino-5-chloro-2-(4-chloro-2-fluoro-3-methoxyphenyl)-pyrimidine-4-carboxylic acid methyl ester], the pest or weed control at 140 g/ha in assay [1] and in assay [3] was 100% each time. Besides, the pest or weed control at 17.5 g/ha came out at 0% in assay [2], 99% in assay [4] and 100% in assay [5].

With `COC(=O)c1nc(-c2ccc(Cl)c(OC)c2F)nc(N)c1Br` [Compound 13, 6-amino-5-bromo-2-(4-chloro-2-fluoro-3-methoxyphenyl)-pyrimidine-4-carboxylic acid methyl ester], the pest or weed control at 140 g/ha in assay [1] and in assay [3] was 100% throughout. For the same compound, the pest or weed control at 17.5 g/ha in assay [2] was 0%; in assay [4] it was 95%; in assay [5] it was 100%.

In the case of `CCOc1c(Cl)ccc(-c2nc(N)c(Cl)c(C(=O)OC)n2)c1F` [Compound 1, 6-amino-5-chloro-2-(4-chloro-3-ethoxy-2-fluorophenyl)-pyrimidine-4-carboxylic acid methyl ester], the pest or weed control at 140 g/ha in assay [1] and in assay [3] was 100% in each case. In addition, the pest or weed control at 35 g/ha in assay [2] is 0%; in assay [4] it was 85%; in assay [5] it was 100%.

Take `COC(=O)c1nc(-c2ccc(Cl)c(C(F)F)c2F)nc(N)c1Cl` [Compound 7, 6-Amino-5-chloro-2-(4-chloro-3-difluoromethyl-2-fluorophenyl)pyrimidine-4-carboxylic acid methyl ester]: the pest or weed control at 140 g/ha in assay [1] and in assay [3] was 100% throughout. For the same compound, the figures for the pest or weed control at 17.5 g/ha in assay [2], in assay [4] and in assay [5] were 0%, 90% and 95%, respectively.
